# Article PMC7759686, “Pharmacokinetics and Immunological Effects of Romidepsin in Rhesus Macaques” (Frontiers in Immunology, 2020)
# Key:
# [1] = Serum chemistries (hepato-, nephro- and general toxicity markers); type: in vivo, rhesus macaques (Macaca mulatta); settings: 3 RMs, 7 mg/m^2
# Excerpt: Complete blood counts (CBCs) and serum chemistries were monitored in the collected samples from both the RMD-treated RMs and control RMs by either the Marshfield Laboratories (Cleveland, OH), IDEXX Reference Laboratories (IDEXX Laboratories, Inc, Westbrook, ME) or in house, using a ProCyte Hematology Analyzer (IDEXX Laboratories, Inc).
# [2] = penetration into CSF; cited from earlier work
# Procedure: The brain is also a key HIV reservoir ([71]–[73]). […] At 2 h postinfusion, the plasma concentration was 19.9 ng/ml (37.6nM). Assuming a 2% penetration, this would h ...
# PBMCs = assay: In vitro RMD impact on cell surface markers of PBMCs; type: cell-based, rhesus macaques; settings: for CD3 expression (% of cells) on PBMCs: n = 3
# Procedure: (§1) To assess the RMD impact on the expression of cellular and homing markers, fresh PBMCs collected from 3 SIV-naïve RMs were subjected to either no RMD treatment or escalating doses of RMD (2, 10, and 20 ng/ml). The PBMCs were incubated with RMD in RPMI1640 supplemented with 1% Penicillin/Streptomycin, 1% HEPES buffer, 1% L-glutamine, and 5% heat-inactivated bovine calf serum for 0, 1, 2, or 5 days. PBMCs were then stained with CD3-V500, CD4-Alexa Flour 700 (L200), CD8-PE-CF594, CCR4-PE-Cy7 (1G1), CCR5-APC (3AP), CCR7-PE (3D12), CCR9-FITC (112509) (R&D Systems, Minneapolis, MN, USA), β7-PE-Cy5 (FIB504), and LIVE/DEAD Fixable Blue Dead Cell Stain Kit (Thermo Fisher Scientific); all antibodies were from BD Biosciences unless otherwise noted. Stained PBMCs were acquired on a LSR-II and data were analyzed with FlowJo software (TreeStar).
# [3] = test system: CD4+ and CD8+ T cells of PBMCs; assay: In vitro RMD impact on homing markers of PBMCs; type: cell-based, rhesus macaques; settings: for CCR5 expression on CD8+ T cells: untreated 7%; for CCR4 expression on CD8+ T cells: baseline 6%, untreated 29%; for α4β7 expression on CD8+ T cells: baseline 7%; for CCR9 expression on CD4+ T cells: baseline 2%; for CCR9 expression on CD4+ T cells / CCR9 expression on CD8+ T cells: untreated 3%
# Procedure: as §1
# [4] = test system: peripheral CD4+ and CD8+ T cells; assay: Apoptosis and activation of peripheral T cells (whole blood flow cytometry); type: in vivo, rhesus macaques (Macaca mulatta); settings: n = 3
# Procedure: Whole blood was stained to monitor the impact of RMD on the immune cell populations. TruCount was used to determine absolute counts of CD3^+, CD4^+, CD8^+ T cells and CD20^+ B cells as described ([51]–[53]). Fifty microliters of whole blood were stained with antibodies against CD3-V450, CD4-APC, CD20-APC-H7, and CD45-PerCP in TruCount tubes (BD Biosciences, Franklin Lakes, NJ, USA) with a set number of fluorescent beads as internal standards. CD8^+ T cell counts were assessed through the ratio of CD8^+ to CD3^+ T cells. Whole blood was also stained with combinations of the following fluorescently labeled antibodies: CD3-V450 (SP34-2), CD4-APC (L200), CD8-PE-CF594 (RPA-T8), CD14-PE-Cy7 (M5E2), CD38-FITC (AT-1) (Stemcell, Vancouver, BC, CA), CD20-APC-H7 (2H7), CD69-APC-Cy7 (FN50), CD95-FITC (DX2), CCR5-PE (3A9), Annexin V-FITC, HLA-DR-PE-Cy7 (L243), NKG2A-PE (Z199) (Beckman Coulter, Pasadena, CA), Strepavidin-Alexa Fluor 750 (Life Technologies, Carlsbad, CA), Biotin-CCR7 (eBioscience, San Diego, CA), LIVE/DEAD Fixable Blue Dead Cell Stain Kit (Thermo Fisher Scientific); all antibodies were from BD Biosciences unless otherwise noted. For Ki-67-PE (B56) intracellular staining, cells were fixed and permeabilized prior to Ki-67 staining. Data were acquired with a LSR-II flow cytometer (BD Biosciences) or Fortessa flow cytometer (BD Biosciences) and analyzed with FlowJo software 10.7.0 (Treestar, Ashland, OR), as described ([51], [54]).
# [5] = human, in vivo; cited from earlier work
# [6] = 3 days postinfusion, baseline 22
# [7] = 4 days postinfusion, baseline 22
smiles,measurement,setting,value
"C/C=C1\NC(=O)[C@H]2CSSCC/C=C/[C@H](CC(=O)N[C@H](C(C)C)C(=O)N2)OC(=O)[C@H](C(C)C)NC1=O [RMD, romidepsin]",alanine aminotransferase (ALT),"[1]; 18 h postinfusion, baseline 22, normal range 14-94, not significant",98 U/L
same,aspartate aminotransferase (AST),"[1]; 18 h postinfusion, baseline 39, normal range 31-108, p < 0.05",186 U/L
same,creatinine,"[1]; 3 days postinfusion, baseline 0.60",0.63 mg/dL
same,alanine aminotransferase (ALT),[1]; [6],89 U/L
same,urea nitrogen,[1]; [6],29 mg/dL
same,aspartate aminotransferase (AST),"[1]; 3 days postinfusion, baseline 39",101 U/L
same,lactate dehydrogenase (LDH),"[1]; 3 days postinfusion, baseline 702, normal 514 ± 187","1,562 U/L"
same,alanine aminotransferase (ALT),[1]; [7],80 U/L
same,urea nitrogen,[1]; [7],25 mg/dL
same,aspartate aminotransferase (AST),"[1]; 4 days postinfusion, baseline 39",91 U/L
same,creatinine kinase (CK),"[1]; 4 days postinfusion, baseline 367","1,740 U/L"
same,lactate dehydrogenase (LDH),"[1]; 4 days postinfusion, baseline 702","1,323 U/L"
same,creatinine,"[1]; peak, 18 h postinfusion, baseline 0.60, normal range 0.5-1.2",0.77 mg/dL
same,urea nitrogen,"[1]; peak, 18 h postinfusion, baseline 22, normal range 8-25",35 mg/dL
same,creatinine kinase (CK),"[1]; peak, 18 h postinfusion, baseline 367, normal range 132-505, p < 0.05","7,445 U/L"
same,AUC of CSF/plasma,[2],2%
same,CD3 expression (% of cells) on PBMCs,"PBMCs; 2 ng/ml RMD, day 2, baseline 50%, no RMD 66%",48%
same,CD3 expression (% of cells) on PBMCs,"PBMCs; 2 ng/ml RMD, day 5, baseline 50%, no RMD 61%",20%
same,CD3 expression (% of cells) on PBMCs,"PBMCs; 10 ng/ml RMD, day 2, baseline 50%, no RMD 66%",30%
same,CD3 expression (% of cells) on PBMCs,"PBMCs; 10 ng/ml RMD, day 5, baseline 50%, no RMD 61%",16%
same,CD3 expression (% of cells) on PBMCs,"PBMCs; 20 ng/ml RMD, day 2, baseline 50%, no RMD 66%",32%
same,CD3 expression (% of cells) on PBMCs,"PBMCs; 20 ng/ml RMD, day 5, baseline 50%, no RMD 61%",19%
same,CD3 expression (% of cells) on PBMCs,"PBMCs; day 1, all dosage treatments (2, 10, 20 ng/ml)",minimal changes
same,proportions of CD4− CD8− CD3+ T cells,"PBMCs; with increasing dosages of RMD (2, 10, 20 ng/ml), p < 0.05",increased proportions
same,CCR5 expression on CD4+ T cells,"[3]; 2 ng/ml RMD, day 5, baseline 3%, untreated 2%, p > 0.05",1%
same,CCR5 expression on CD8+ T cells,"[3]; 2 ng/ml RMD, day 5, baseline 4%, p > 0.05",59%
same,CCR4 expression on CD8+ T cells,"[3]; 2 ng/ml RMD, day 5, p > 0.05",73%
same,α4β7 expression on CD8+ T cells,"[3]; 2 ng/ml RMD, day 5, p > 0.05",59%
same,CCR7 expression on CD8+ T cells,"[3]; 10 ng/ml RMD, day 1 (peak), baseline 3%",6%
same,α4β7 expression on CD4+ T cells,"[3]; 10 ng/ml RMD, day 1, baseline 8%",9%
same,α4β7 expression on CD4+ T cells,"[3]; 10 ng/ml RMD, day 2, baseline 8%",16%
same,CCR9 expression on CD4+ T cells,"[3]; 10 ng/ml RMD, day 5 (peak), p > 0.05",14%
same,CCR5 expression on CD4+ T cells,"[3]; 10 ng/ml RMD, day 5, baseline 3%, untreated 2%, p > 0.05",< 1%
same,CCR9 expression on CD8+ T cells,"[3]; 10 ng/ml RMD, day 5, baseline 4%, p > 0.05",8%
same,CCR5 expression on CD8+ T cells,"[3]; 10 ng/ml RMD, day 5, baseline 4%, p < 0.05",93%
same,CCR4 expression on CD8+ T cells,"[3]; 10 ng/ml RMD, day 5, p < 0.05",93%
same,α4β7 expression on CD8+ T cells,"[3]; 10 ng/ml RMD, day 5, p < 0.05",95%
same,α4β7 expression on CD4+ T cells,"[3]; 10 ng/ml RMD, day 5, untreated 7.5%",2%
same,CCR7 expression on CD8+ T cells,"[3]; 20 ng/ml RMD, day 1 (peak), baseline 3%",6.2%
same,α4β7 expression on CD4+ T cells,"[3]; 20 ng/ml RMD, day 1, baseline 8%",10%
same,α4β7 expression on CD4+ T cells,"[3]; 20 ng/ml RMD, day 2, baseline 8%",15%
same,CCR9 expression on CD4+ T cells,"[3]; 20 ng/ml RMD, day 5 (peak), p > 0.05",13%
same,CCR7 expression on CD4+ T cells,"[3]; 20 ng/ml RMD, day 5 (peak), baseline 4%, untreated 2%, p > 0.05",9%
same,CCR5 expression on CD4+ T cells,"[3]; 20 ng/ml RMD, day 5, baseline 3%, untreated 2%, p > 0.05",< 1%
same,CCR9 expression on CD8+ T cells,"[3]; 20 ng/ml RMD, day 5, baseline 4%, p > 0.05",10%
same,CCR5 expression on CD8+ T cells,"[3]; 20 ng/ml RMD, day 5, baseline 4%, p < 0.05",90%
same,CCR4 expression on CD8+ T cells,"[3]; 20 ng/ml RMD, day 5, p < 0.05",90%
same,α4β7 expression on CD8+ T cells,"[3]; 20 ng/ml RMD, day 5, p < 0.05",91%
same,CCR7 expression on CD8+ T cells,"[3]; 20 ng/ml RMD, day 5, untreated 2%",5%
same,α4β7 expression on CD4+ T cells,"[3]; 20 ng/ml RMD, day 5, untreated 7.5%",3%
same,CCR4 expression on CD4+ T cells,"[3]; 2, 10, 20 ng/ml RMD, up to day 5",mostly unchanged
same,frequency of apoptotic CD8+ T cells,"[4]; 2 days postinfusion, baseline 2.1%, Annexin V and Live/Dead",4.6%
same,frequency of apoptotic CD4+ T cells,"[4]; after RMD administration, baseline 3.7%, Annexin V and Live/Dead",1.8%
same,expression of T cell activation markers CD69 and Ki-67 on circulating CD4+ and CD8+ T cells,"[4]; by 1 day postinfusion, not significant",increased
same,terminal elimination half-life in clinical studies,[5],6.6 to 19 h
same,terminal elimination half-life reported in humans,[5],~ 3.5 h
